Legend:
[1] = molecular target: T1, recombinant N-terminal GST-tagged human Rho kinase 1 (ROCK1, amino acids 1-535) (Homo sapiens, UniProt Q13464); assay: In vitro Rho kinase assay (luciferase-based ATP consumption), ROCK1; type: biochemical
T1 construct: ROCK1, amino acids 1-535, Invitrogen Inc., cat. #PV-3691; GST (N); purchased Invitrogen Inc. PV-3691
Experimental: (§1) Rho kinase biochemical assays described below depend on firefly luciferase-based, indirect measurement of total ATP consumption by the kinase following incubation with substrate and ATP. 25 μl of Rho kinase assay buffer (20 mM Tris-HCL [pH 7.5], 1 mM MgCl2, 0.4 mM CaCl2, 0.15 mM EGTA, 0.1 mg/ml bovine serum albumin) containing 0.82 μg/ml of recombinant N-terminal GST-tagged human Rho kinase 1 (ROCK1, amino acids 1-535, Invitrogen Inc., cat. #PV-3691) or recombinant N-terminal GST-tagged human Rho kinase 2 (ROCK2, amino acids 1-552, Invitrogen Inc., cat #PV3759), 100 μg/ml S6 peptide substrate (related to amino acids 218-249 of the human 40S ribosomal protein S6, and suitable for ROCK1 or ROCK2, e.g. Upstate/Millipore Inc., cat #12-420), and 3 µM ATP are dispensed to wells of a 384 multi-well opaque plate. The plate is centrifuged for 30 seconds at approximately 200×g. 240 nl of test compound in DMSO is dispensed to each well by passive pin transfer. The lag phase of this in vitro kinase reaction permits addition of compounds soon after the reaction initiates. The reaction is allowed to incubate at 30° C. for 2 hours. The assay plates are sealed and maintained in a humidified environment. After 2 hours, 25 μl of easyLite protein kinase assay reagent (Perkin-Elmer, Inc.) is dispensed. After an additional 10 minute incubation at room temperature (about 22° C.), luminescence activity is measured on a Molecular Devices Analyst multi-mode plate reader or other suitable plate reader. Kinase inhibition results in less ATP consumption, and therefore increased luminescence signal. Negative control activity is measured with DMSO lacking any test compound. The positive control is 2-methyl-1-(4-methylisoquinolin-5-ylsulfonyl)perhydro-1,4-diazepine hydrochloride (aka H-1152P, HCl salt). Efficacy is measured as a percentage of positive control activity. […] In some cases, kinase reactions and compound testing are performed in 1536 multi-well plates under similar conditions, with assay volumes appropriately scaled. The designated NT means the cited example was not tested.

[2] = molecular target: T2, recombinant N-terminal GST-tagged human Rho kinase 2 (ROCK2, amino acids 1-552) (Homo sapiens, UniProt O75116); assay: In vitro Rho kinase assay (luciferase-based ATP consumption), ROCK2; type: biochemical
T2 construct: ROCK2, amino acids 1-552, Invitrogen Inc., cat #PV3759; GST (N); purchased Invitrogen Inc. PV3759
Experimental: as §1

T1 sequence (Q13464 1-535): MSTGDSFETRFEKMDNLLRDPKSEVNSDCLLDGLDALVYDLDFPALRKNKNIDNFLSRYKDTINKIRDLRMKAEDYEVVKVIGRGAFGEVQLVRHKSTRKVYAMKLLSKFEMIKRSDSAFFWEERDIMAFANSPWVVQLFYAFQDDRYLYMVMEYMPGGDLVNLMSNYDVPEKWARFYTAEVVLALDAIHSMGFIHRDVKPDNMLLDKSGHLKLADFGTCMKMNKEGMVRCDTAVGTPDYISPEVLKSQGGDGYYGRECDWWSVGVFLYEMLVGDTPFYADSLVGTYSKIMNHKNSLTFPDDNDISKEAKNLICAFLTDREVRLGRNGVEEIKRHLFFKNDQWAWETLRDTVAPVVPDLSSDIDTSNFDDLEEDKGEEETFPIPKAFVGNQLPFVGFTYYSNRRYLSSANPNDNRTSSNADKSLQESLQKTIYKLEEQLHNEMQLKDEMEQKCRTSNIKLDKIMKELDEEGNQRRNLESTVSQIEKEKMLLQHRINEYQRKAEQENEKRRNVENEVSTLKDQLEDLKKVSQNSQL
T2 sequence (O75116 1-552): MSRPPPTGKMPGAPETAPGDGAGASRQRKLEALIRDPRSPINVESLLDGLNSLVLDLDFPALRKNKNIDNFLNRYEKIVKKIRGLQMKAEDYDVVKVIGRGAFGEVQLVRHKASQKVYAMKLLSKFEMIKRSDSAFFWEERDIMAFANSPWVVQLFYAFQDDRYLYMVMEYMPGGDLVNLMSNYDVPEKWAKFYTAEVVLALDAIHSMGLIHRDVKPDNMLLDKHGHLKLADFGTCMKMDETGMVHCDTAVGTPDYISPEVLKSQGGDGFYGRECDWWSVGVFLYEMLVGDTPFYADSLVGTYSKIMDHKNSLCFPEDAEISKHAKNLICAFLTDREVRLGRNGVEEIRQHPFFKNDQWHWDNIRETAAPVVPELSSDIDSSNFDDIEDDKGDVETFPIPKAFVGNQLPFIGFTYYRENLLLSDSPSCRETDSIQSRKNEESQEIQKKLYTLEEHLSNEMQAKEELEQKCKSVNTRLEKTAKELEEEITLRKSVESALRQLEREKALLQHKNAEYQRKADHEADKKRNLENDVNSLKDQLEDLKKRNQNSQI

For `O=S(=O)(NCc1nc(-c2ccncc2)n[nH]1)c1ccc(OCc2ccccc2)cc1` [Example 54, 4-(Benzyloxy)-N-((3-(pyridin-4-yl)-1H-1,2,4-triazol-5-yl)methyl)benzenesulfonamide], the IC50 [1] was > 5 µM and the IC50 [2] was > 5 µM.

`Cc1c(Cl)ccc(S(=O)(=O)NCc2nc(-c3ccncc3)n[nH]2)c1O` [Example 32, 4-Chloro-2-hydroxy-3-methyl-N-((3-(pyridin-4-yl)-1H-1,2,4-triazol-5-yl)methyl)benzenesulfonamide] was tested, and the IC50 [1] was > 5 µM and the IC50 [2] was > 5 µM.

In the case of `c1ccc2c(NCc3nc(-c4ccncc4)n[nH]3)n[nH]c2c1` [Example 59, N-((3-(Pyridin-4-yl)-1H-1,2,4-triazol-5-yl)methyl)-1H-indazol-3-amine], the IC50 [1] is reported as > 5 µM and the IC50 [2] is reported as > 5 µM.

With `CC(C)(C)OC(=O)NCCCC(NC(=O)c1ccc(O)cc1O)c1nc(-c2ccncc2)n[nH]1` (centres unmarked) [Example 78, tert-Butyl 4-(2,4-dihydroxybenzamido)-4-(3-(pyridin-4-yl)-1H-1,2,4-triazol-5-yl)butylcarbamate] the IC50 [1] was < 5 µM and the IC50 [2] was < 5 µM.

For `CS(=O)(=O)Nc1cccc(C(=O)NCc2nc(-c3c[nH]c4ncccc34)cs2)c1` [Example 73, N-((4-(1H-pyrrolo[2,3-b]pyridin-3-yl)thiazol-2-yl)methyl)-3-(methylsulfonamido)benzamide], the IC50 [1] was < 5 µM and the IC50 [2] was < 5 µM.

For `Cc1cccc(C(=O)NCc2c[nH]c(-c3ccncc3)n2)c1O` [Example 13, 2-hydroxy-3-methyl-N-((2-(pyridin-4-yl)-1H-imidazol-4-yl)methyl)benzamide], the IC50 [1] was > 5 µM and the IC50 [2] was > 5 µM.

`Cc1cc(C(=O)NCc2nc(-c3ccncc3)n[nH]2)ccc1O` [Example 45, 4-Hydroxy-3-methyl-N-((3-(pyridin-4-yl)-1H-1,2,4-triazol-5-yl)methyl)benzamide] was tested, and the IC50 [1] was < 5 µM and the IC50 [2] was < 5 µM.

`O=C(NCc1nc(-c2ccncc2)co1)c1ccc(O)cc1O` [Example 8, 2,4-dihydroxy-N-((4-(pyridin-4-yl)oxazol-2-yl)methyl)benzamide] was tested, and the IC50 [1] was < 5 µM and the IC50 [2] was < 5 µM.

`O=S(=O)(NCc1nc(-c2ccncc2)n[nH]1)c1ccc(O)cc1` [Example 55, 4-Hydroxy-N-((3-(pyridin-4-yl)-1H-1,2,4-triazol-5-yl)methyl)benzenesulfonamide] was tested, and the IC50 [1] was > 5 µM and the IC50 [2] was > 5 µM.

In the case of `Cc1csc(C(=O)NCc2nc(-c3ccncc3)n[nH]2)c1` [Example 48, 4-Methyl-N-((3-(pyridin-4-yl)-1H-1,2,4-triazol-5-yl)methyl)thiophene-2-carboxamide], the IC50 [1] is reported as < 5 µM and the IC50 [2] is reported as < 5 µM.

For `CS(=O)(=O)Nc1ccccc1C(=O)NCc1nc(-c2ccncc2)n[nH]1` [Example 29, 2-(Methylsulfonamido)-N-((3-(pyridin-4-yl)-1H-1,2,4-triazol-5-yl)methyl)benzamide], the IC50 [1] was > 5 µM and the IC50 [2] was > 5 µM.

For `O=C(NCc1cc(-c2ccncc2)n[nH]1)c1ccc(O)cc1O` [Example 9, 2,4-dihydroxy-N-((3-(pyridin-4-yl)-1H-pyrazol-5-yl)methyl)benzamide], the IC50 [1] was < 5 µM and the IC50 [2] was < 5 µM.

For `O=C(NCc1ncc(-c2ccncc2)s1)c1cccs1` [Example 1, N-((5-(pyridin-4-yl)thiazol-2-yl)methyl)thiophene-2-carboxamide], the IC50 [1] was > 5 µM and the IC50 [2] was > 5 µM.

For `O=C(NCc1nc(-c2c[nH]c3ncccc23)n[nH]1)c1cccs1` [Example 70, N-((3-(1H-pyrrolo[2,3-b]pyridin-3-yl)-1H-1,2,4-triazol-5-yl)methyl)thiophene-2-carboxamide], the IC50 [1] was < 5 µM and the IC50 [2] was < 5 µM.

In the case of `CC(C)(C)C(=O)Oc1ccc(C(=O)NCc2nc(-c3ccncc3)n[nH]2)cc1` [Example 38, 4-((3-(Pyridin-4-yl)-1H-1,2,4-triazol-5-yl)methylcarbamoyl)phenyl pivalate], the IC50 [1] is reported as > 5 µM and the IC50 [2] is reported as > 5 µM.

With `O=C(NCc1nc(-c2ccncc2)n[nH]1)c1cccs1` [Example 16, N-((3-(pyridin-4-yl)-1H-1,2,4-triazol-5-yl)methyl)thiophene-2-carboxamide] the IC50 [1] was < 5 µM and the IC50 [2] was < 5 µM.

Reference: patent US20080021217A1, “HETEROCYCLIC INHIBITORS OF RHO KINASE” (priority 2006, published 2008)
